Measurements reported in patent publication US4795761A, “Contraceptive composition” (Euroceltique S.A., priority 1986, dated 1989).
Where two headings read alike, the source gives them in different places.

How the values were obtained:
human sperm = assay: Human sperm motility, transmembrane migration ratio (two-chamber membrane method); assay type: cell-based; conditions: for inhibition at 25000 µM: beta-blocker 25 mM alone; for inhibition at 100 µM: beta-blocker 0.1 mM alone
Experimental: A simple method for measuring human sperm motility was developed as a modification to the method of C. […] The method used two chambers separated by a membrane and assessed the proportion of spermatozoa, from a small aliquot of semen, that moved across the membrane from the upper to the lower chamber.
The apparatus consisted of an upper and a lower chamber, the upper chamber being the plunger of a 2 ml disposable syringe. A 13 mm diameter Nuclepore membrane filter was bonded to the plunger using dichloromethane.
The mixture was pre-incubated at 37° C. for 10 minutes.
After pre-incubation the mixture was vortexed and 100 μl was pipetted onto the membrane of the upper chamber. The upper chamber was then inserted into the lower chamber, which contained 2 ml of phosphate buffered saline at 37° C.
The relative positions of the two chambers were fixed so that the fluid levels were equal.
The apparatus was then incubated for 90 mins. at 37° C. After this time, the upper chamber was removed and its contents were washed into 1.9 ml phosphate buffered saline containing 50 ul of 10% formalin solution by breaking the membrane. The spermatozoa in the lower chamber were also killed by adding 50 ul of the formalin to the lower chamber.
Finally, the number of spermatozoa in the upper and lower chambers were counted using a haemocytometer. The proportion of spermatozoa that traverse the membrane into the lower chamber is referred to as the transmembrane migration ratio.
Using the same technique, but a different sperm source the control of sperm motility achieved by nonoxynol-9, various beta-blockers and mixtures of nonoxynol-9 and a beta-blocker was measured. […] Again, mM represents millimolar.

[1] = cited from earlier work
[2] = Homo sapiens, Sperm, Table 2, beta-blocker 1.0 mM alone, read-out: % Inhibition of Sperm Motility
[3] = Homo sapiens, Sperm, Table 5, beta-blocker 1 mM alone, read-out: % Inhibition of Sperm Motility
[4] = Homo sapiens, Sperm, Table 3, beta-blocker 1.0 mM alone, read-out: % Inhibition of Sperm Motility

CC(C)NCC(O)COc1cccc2ccccc12 (racemic) [d,1-Propranolol]
inhibition at 1000 µM (human sperm; [2]): 24.6%
inhibition at 1000 µM (human sperm; [3]): 10.5%

C=CCc1ccccc1OC[C@@H](O)CNC(C)C [1-Alprenolol]
inhibition at 1000 µM (human sperm; [2]): 17%
inhibition at 1000 µM (human sperm; [4]): 26.9%

CCCC(=O)Nc1ccc(OCC(O)CNC(C)C)c(C(C)=O)c1 (stereo not drawn) [Acebutolol]
inhibition at 25000 µM (human sperm; Homo sapiens, Sperm, Table 4): 11.3%

CCc1cccc2cc(C(O)CNC(C)(C)C)oc12 (stereo not drawn) [Bufuralol]
apparent octanol/buffer (pH 7.4) partition coefficient [1]: greater than 1
inhibition at 1000 µM (human sperm; Homo sapiens, Sperm, read-out: % Inhibition of Sperm Motility, Table 2, beta-blocker 1.0 mM alone): 28.5%
inhibition at 1000 µM (human sperm; Homo sapiens, Sperm, read-out: % Inhibition of Sperm Motility, Table 3, beta-blocker 1.0 mM alone): 22%

COCCc1ccc(OCC(O)CNC(C)C)cc1 (stereo not drawn) [Metoprolol]
inhibition at 10000 µM (human sperm; Homo sapiens, Sperm, Table 2, beta-blocker 10.0 mM alone): 7.1%
inhibition at 10000 µM (human sperm; Homo sapiens, Sperm, Table 3, beta-blocker 10 mM alone): 0%

C=CCOc1ccccc1OCC(O)CNC(C)C (stereo not drawn) [Oxprenolol]
inhibition at 5000 µM (human sperm; Homo sapiens, Sperm, Table 2, beta-blocker 5.0 mM alone): 3.4%
inhibition at 5000 µM (human sperm; Homo sapiens, Sperm, Table 3, beta-blocker 5 mM alone): 0%

CC(C)(C)NC[C@H](O)COc1ccccc1C1CCCC1 [Penbutolol]
apparent octanol/buffer (pH 7.4) partition coefficient [1]: greater than 1
inhibition at 100 µM (human sperm; Homo sapiens, Sperm, Table 2): 6.2%
inhibition at 100 µM (human sperm; Homo sapiens, Sperm, Table 3): 0%
inhibition at 100 µM (human sperm; Homo sapiens, Sperm, Table 5): 17.8%

CC(C)NCC(O)COc1cccc2[nH]ccc12 (stereo not drawn) [Pindolol]
inhibition at 25000 µM (human sperm; Homo sapiens, Sperm, Table 3): 10.2%

CC(C)(C)NC[C@H](O)COc1nsnc1N1CCOCC1 [Timolol]
inhibition at 25000 µM (human sperm; Homo sapiens, Sperm, Table 4): 4.9%

C=CCc1ccccc1OCC(O)CNC(C)C (stereo not drawn) [alprenolol]
apparent octanol/buffer (pH 7.4) partition coefficient [1]: greater than 1

CC(C)NC[C@@H](O)COc1cccc2ccccc12 [d-Propranolol]
inhibition at 1000 µM (human sperm; Homo sapiens, Sperm, Table 1, d-Propranolol 1.0 mM alone, % of control, read-out: % Inhibition of Sperm Motility): 28%
inhibition at 2500 µM (human sperm; Homo sapiens, Sperm, Table 1, d-Propranolol 2.5 mM alone, % of control): 76.5%
inhibition at 1000 µM (human sperm; [2]): 3.6%
inhibition at 1000 µM (human sperm; [4]): 4%
inhibition at 1000 µM (human sperm; [3]): 0.2%

Nonoxynol-9
% Inhibition of Sperm Motility (human sperm; Table 1, Nonoxynol-9 0.16 mM alone, % of control): 12.5%
% Inhibition of Sperm Motility (human sperm; Table 1, Nonoxynol-9 1.6 mM alone, % of control): 97.7%
% Inhibition of Sperm Motility (human sperm; Table 2, different sperm source, Nonoxynol-9 at its IC50, alone): 50%
% Inhibition of Sperm Motility (human sperm; Table 3, another sperm source, Nonoxynol-9 at its IC50, alone): 50.0%
% Inhibition of Sperm Motility (human sperm; Table 4, another sperm source, Nonoxynol-9 at its IC50, alone): 50.0%

Octoxynol
% Inhibition of Sperm Motility (human sperm; Table 5, another sperm source, Octoxynol at its IC50, alone): 50.0%
